Assay results as given in ChEMBL document CHEMBL3046792, “Biologically active secondary metabolites of endophytic Pezicula species” (1995).

How the values were obtained:
Type in all cases: functional
[1] = test system: [Chlorella] fusca; assay: Antimicrobial activity against 'Chlorella' fusca at 1 mg by agar diffusion test; details: Scenedesmus fuscus; read-out: IZ
[2] = test system: Microbotryum violaceum; assay: Antimicrobial activity against Microbotryum violaceum at 1 mg by agar diffusion test; details: read-out: IZ
[3] = test system: Lepidium sativum; assay: Herbicidal activity against Lepidium sativum assessed as inhibition of seedlings growth after 2 days
[4] = test system: Mycotypha microspora; assay: Antimicrobial activity against Mycotypha microspora at 1 mg by agar diffusion test; details: read-out: IZ
[5] = test system: Aspergillus pseudoglaucus; assay: Antimicrobial activity against Eurotium repens at 1 mg by agar diffusion test; details: read-out: IZ
[6] = test system: Medicago sativa; assay: Herbicidal activity against Medicago sativa (alfalfa) assessed as inhibition of seedlings growth after 5 days
[7] = test system: Escherichia coli; assay: Antimicrobial activity against Escherichia coli at 1 mg by agar diffusion test; details: read-out: IZ
[8] = test system: Priestia megaterium; assay: Antimicrobial activity against Bacillus megaterium at 1 mg by agar diffusion test; details: read-out: IZ
[9] = test system: Aspergillus pseudoglaucus; assay: Antimicrobial activity against Eurotium repens at 1.2 mg by agar diffusion test; details: read-out: IZ
[10] = test system: Microbotryum violaceum; assay: Antimicrobial activity against Microbotryum violaceum at 1.2 mg by agar diffusion test; details: read-out: IZ
[11] = test system: Priestia megaterium; assay: Antimicrobial activity against Bacillus megaterium at 1.2 mg by agar diffusion test; details: read-out: IZ
[12] = test system: Escherichia coli; assay: Antimicrobial activity against Escherichia coli at 1.2 mg by agar diffusion test; details: read-out: IZ
[13] = test system: Mycotypha microspora; assay: Antimicrobial activity against Mycotypha microspora at 1.2 mg by agar diffusion test; details: read-out: IZ
[14] = test system: [Chlorella] fusca; assay: Antimicrobial activity against 'Chlorella' fusca at 1.2 mg by agar diffusion test; details: Scenedesmus fuscus; read-out: IZ
[15] = test system: [Chlorella] fusca; assay: Antimicrobial activity against 'Chlorella' fusca at 0.9 mg by agar diffusion test; details: Scenedesmus fuscus; read-out: IZ
[16] = test system: Mycotypha microspora; assay: Antimicrobial activity against Mycotypha microspora at 0.9 mg by agar diffusion test; details: read-out: IZ
[17] = test system: Aspergillus pseudoglaucus; assay: Antimicrobial activity against Eurotium repens at 0.9 mg by agar diffusion test; details: read-out: IZ
[18] = test system: Escherichia coli; assay: Antimicrobial activity against Escherichia coli at 0.9 mg by agar diffusion test; details: read-out: IZ
[19] = test system: Microbotryum violaceum; assay: Antimicrobial activity against Microbotryum violaceum at 0.9 mg by agar diffusion test; details: read-out: IZ
[20] = test system: Priestia megaterium; assay: Antimicrobial activity against Bacillus megaterium at 0.9 mg by agar diffusion test; details: read-out: IZ

| Compound | zone of inhibition at 1000 µg/disc [1] [mm] | zone of inhibition at 1000 µg/disc [2] [mm] | growth inhibition (GI) [3] [%] | zone of inhibition at 1000 µg/disc [4] [mm] | zone of inhibition at 1000 µg/disc [5] [mm] | growth inhibition (GI) [6] [%] | zone of inhibition at 1000 µg/disc [7] [mm] | zone of inhibition at 1000 µg/disc [8] [mm] | zone of inhibition at 1200 µg/disc [9] [mm] | zone of inhibition at 1200 µg/disc [10] [mm] | zone of inhibition at 1200 µg/disc [11] [mm] | zone of inhibition at 1200 µg/disc [12] [mm] | zone of inhibition at 1200 µg/disc [13] [mm] | zone of inhibition at 1200 µg/disc [14] [mm] | zone of inhibition at 900 µg/disc [15] [mm] | zone of inhibition at 900 µg/disc [16] [mm] | zone of inhibition at 900 µg/disc [17] [mm] | zone of inhibition at 900 µg/disc [18] [mm] | zone of inhibition at 900 µg/disc [19] [mm] | zone of inhibition at 900 µg/disc [20] [mm] |
| --- | --- | --- | --- | --- | --- | --- | --- | --- | --- | --- | --- | --- | --- | --- | --- | --- | --- | --- | --- | --- |
| C/C=C/C1=C(Cl)C(=O)[C@@H](Cl)[C@@]1(O)C(=O)OC [(+)-CRYPTOSPORIPSIN] | 0 | 15 | 100 | 17 | 16 | 100 | 3 | 5 |  |  |  |  |  |  |  |  |  |  |  |  |
| C/C=C(\Cl)C1=CC(=O)[C@@]23C[C@@H]2C(C)(C)O[C@@]3(O)C1=O [(-)-MYCORRHIZIN A] |  |  | 100 |  |  | 100 |  |  | 14 | 14 | 8 | 3 | 10 | 3 |  |  |  |  |  |  |
| C=C1C(=O)O[C@H]2C(=O)O[C@H](CC)[C@@H]12 [4-EPI-ETHIOSOLIDE] | 3 | 10 | 100 | 6 |  | 100 | 5 | 5 |  |  |  |  |  |  |  |  |  |  |  |  |
| C[C@@H]1Cc2cccc(O)c2C(=O)O1 [(-)-(R)-MELLEIN] |  |  | 100 |  |  | 100 |  |  |  |  |  |  |  |  | 14 | 0 | 6 | 2 | 8 | 2 |
